Target: mGluR4 (UniProt Q14833)
Assay: mGluR4 potentiation assay: increase in response to an EC20 concentration of agonist (species not given)
Assay type: cell-based
Settings: EC50 for potentiation of mGluR4; table does not state human or rat
How it was run: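 Human mGluR4 was expressed in CHO cells read with a Ca2+-sensitive dye; rat mGluR4 was co-expressed with GIRK in […] read by thallium flux. Potentiation is the rise over agonist-alone response, with EC50 and maximal potentiation from non-linear fits.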

Row | SMILES | EC50 [nM]
1 | c1ccc2c(Nc3cnc4cnn(CC5CCC5)c4c3)n[nH]c2c1 [Example 27, 1-(cyclobutylmethyl)-N-(1H-indazol-3-yl)-1H-pyrazolo[4,3-b]pyridin-6-amine] | > 10000
2 | Cc1nn(CCCO)c2ncc(Nc3n[nH]c4cccnc34)cc12 [Example 255, 3-[3-methyl-5-(1H-pyrazolo[4,3-b]pyridin-3-ylamino)pyrazolo[3,4-b]pyridin-1-yl]propan-1-ol] | > 30000
3 | Cn1nc(C2(C)CC2)c2ccc(Nc3n[nH]c4cccnc34)cc21 [Example 28, N-(1-methyl-3-(1-methylcyclopropyl)-1H-indazol-6-yl)-1H-pyrazolo[4,3-b]pyridin-3-amine] | 68
4 | c1cnc2c(Nc3ccc4c(C5CC5)n[nH]c4c3)n[nH]c2c1 [Example 247, N-(3-cyclopropyl-1H-indazol-6-yl)-1H-pyrazolo[4,3-b]pyridin-3-amine] | 452
5 | CC(C)n1ncc2cc(Nc3n[nH]c4cccnc34)cc(Cl)c21 [Example 58, N-(7-chloro-1-isopropyl-1H-indazol-5-yl)-1H-pyrazolo[4,3-b]pyridin-3-amine] | 2290
6 | Cc1cc(Cn2nc(Cl)c3cc(Nc4n[nH]c5cccnc45)ccc32)no1 [Example 279, N-(3-chloro-1-((5-methylisoxazol-3-yl)methyl)-1H-indazol-5-yl)-1H-pyrazolo[4,3-b]pyridin-3-amine] | 290
7 | Cc1nn(CC2CCC2)c2ccc(Nc3n[nH]c4ncccc34)cc12 [Example 75, N-(1-(cyclobutylmethyl)-3-methyl-1H-indazol-5-yl)-1H-pyrazolo[3,4-b]pyridin-3-amine] | 187
8 | Cn1nc(OCC2CCCCO2)c2ccc(Nc3n[nH]c4cccnc34)cc21 (stereo not shown) [Example 181, N-(1-methyl-3-((tetrahydro-2H-pyran-2-yl)methoxy)-1H-indazol-6-yl)-1H-pyrazolo[4,3-b]pyridin-3-amine] | 87
9 | COC(=O)Cn1nc(C)c2cc(Nc3n[nH]c4cccnc34)ccc21 [Example 118, methyl 2-(5-((1H-pyrazolo[4,3-b]pyridin-3-yl)amino)-3-methyl-1H-indazol-1-yl)acetate] | 867
10 | CCC(C)n1nc(C)c2cc(Nc3n[nH]c4cccnc34)ccc21 (stereo not shown) [Example 102, N-(1-(sec-butyl)-3-methyl-1H-indazol-5-yl)-1H-pyrazolo[4,3-b]pyridin-3-amine] | 367
11 | COc1cc(Nc2n[nH]c3nccnc23)cc2c1cnn2C [Example 53, N-(4-methoxy-1-methyl-1H-indazol-6-yl)-1H-pyrazolo[3,4-b]pyrazin-3-amine] | 247
12 | Cn1nc(Cl)c2ccc(Nc3n[nH]c4cccnc34)cc21 [Example 31, N-(3-chloro-1-methyl-1H-indazol-6-yl)-1H-pyrazolo[4,3-b]pyridin-3-amine] | 171
13 | Cc1cc(Cn2nc(C)c3cc(Nc4n[nH]c5ccccc45)ccc32)no1 [Example 78, N-(3-methyl-1-((5-methylisoxazol-3-yl)methyl)-1H-indazol-5-yl)-1H-indazol-3-amine] | 129
14 | c1cnc2c(Nc3ccc4c(cnn4CC4CCC4)c3)n[nH]c2n1 [Example 85, N-(1-(cyclobutylmethyl)-1H-indazol-5-yl)-1H-pyrazolo[3,4-b]pyrazin-3-amine] | 57
15 | Cc1cc(COc2nn(C)c3cc(Nc4n[nH]c5cccnc45)ccc23)no1 [Example 183, N-(1-methyl-3-((5-methylisoxazol-3-yl)methoxy)-1H-indazol-6-yl)-1H-pyrazolo[4,3-b]pyridin-3-amine] | 224
16 | Cc1c2cc(Nc3n[nH]c4cccnc34)ccc2nn1C [Example 101, N-(2,3-dimethyl-2H-indazol-5-yl)-1H-pyrazolo[4,3-b]pyridin-3-amine] | > 10000
17 | Cc1nn(C(C)(C)C)c2ccc(Nc3n[nH]c4cccnc34)cc12 [Example 97, N-(1-(tert-butyl)-3-methyl-1H-indazol-5-yl)-1H-pyrazolo[4,3-b]pyridin-3-amine] | 575
18 | Cc1nn(CC2CCC2)c2ncc(Nc3n[nH]c4cccnc34)cc12 [Example 156, 1-(cyclobutylmethyl)-3-methyl-N-(1H-pyrazolo[4,3-b]pyridin-3-yl)pyrazolo[3,4-b]pyridin-5-amine] | 110
19 | Cn1nc(C2CC2)c2ccc(Nc3n[nH]c4cc(F)ccc34)cc21 [Example 11, N-(3-cyclopropyl-1-methyl-1H-indazol-6-yl)-6-fluoro-1H-indazol-3-amine] | 4220

Row | SMILES | EC50 [nM]
20 | Cc1nn(CCN2CCOCC2)c2ccc(Nc3n[nH]c4cccnc34)cc12 [Example 132, N-(3-methyl-1-(2-morpholinoethyl)-1H-indazol-5-yl)-1H-pyrazolo[4,3-b]pyridin-3-amine] | 330
21 | Cc1nn(CC2CCC2)c2ccc(Nc3n[nH]c4ccccc34)cc12 [Example 71, N-(1-(cyclobutylmethyl)-3-methyl-1H-indazol-5-yl)-1H-indazol-3-amine] | 342
22 | FC1(F)CC(Cn2nc(Cl)c3cc(Nc4n[nH]c5cccnc45)ccc32)C1 [Example 287, N-(3-chloro-1-((3,3-difluorocyclobutyl)methyl)-1H-indazol-5-yl)-1H-pyrazolo[4,3-b]pyridin-3-amine] | 2990
23 | C=CCn1nc(C)c2cc(Nc3n[nH]c4cccnc34)ccc21 [Example 109, N-(1-allyl-3-methyl-1H-indazol-5-yl)-1H-pyrazolo[4,3-b]pyridin-3-amine] | 59
24 | Cn1nc(C2CC2)c2ccc(Nc3n[nH]c4ncc(F)cc34)cc21 [Example 5, N-(3-cyclopropyl-1-methyl-1H-indazol-6-yl)-5-fluoro-1H-pyrazolo[3,4-b]pyridin-3-amine] | 364
25 | c1cnc2c(Nc3ccc4[nH]ncc4c3)n[nH]c2c1 [Example 88, N-(1H-indazol-5-yl)-1H-pyrazolo[4,3-b]pyridin-3-amine] | 72
26 | Cc1cc(Cn2nc(C)c3cc(Nc4n[nH]c5cccnc45)ccc32)on1 [Example 130, N-(3-methyl-1-((3-methylisoxazol-5-yl)methyl)-1H-indazol-5-yl)-1H-pyrazolo[4,3-b]pyridin-3-amine] | 63
27 | Cn1ncc2cc(Nc3n[nH]c4cccnc34)ccc21 [Example 55, N-(1-methyl-1H-indazol-5-yl)-1H-pyrazolo[4,3-b]pyridin-3-amine] | 790
28 | Cc1nn(CCCCN2CCCCC2)c2ccc(Nc3n[nH]c4cccnc34)cc12 [Example 283, N-(3-methyl-1-(4-(piperidin-1-yl)butyl)-1H-indazol-5-yl)-1H-pyrazolo[4,3-b]pyridin-3-amine] | 3510
29 | Cn1nc(C(C)(C)O)c2ccc(Nc3n[nH]c4cccnc34)cc21 [Example 54, 2-(6-((1H-pyrazolo[4,3-b]pyridin-3-yl)amino)-1-methyl-1H-indazol-3-yl)propan-2-ol] | 865
30 | Cn1ncc2c(Nc3n[nH]c4cccnc34)cccc21 [Example 33, N-(1-methyl-1H-indazol-4-yl)-1H-pyrazolo[4,3-b]pyridin-3-amine] | > 10000
31 | CC[C@H](C)Cn1nc(C)c2cc(Nc3n[nH]c4cccnc34)cnc21 [Example 155, 3-methyl-1-[(2S)-2-methylbutyl]-N-(1H-pyrazolo[4,3-b]pyridin-3-yl)pyrazolo[3,4-b]pyridin-5-amine] | 160
32 | Cc1cc(Cn2ncc3cc(Nc4n[nH]c5nccnc45)ccc32)no1 [Example 104, N-(1-((5-methylisoxazol-3-yl)methyl)-1H-indazol-5-yl)-1H-pyrazolo[3,4-b]pyrazin-3-amine] | 83
33 | Cn1nc(C(=O)N2CCCC(F)C2)c2ccc(Nc3n[nH]c4cccnc34)cc21 (stereo not shown) [Example 163, (3-fluoro-1-piperidyl)-[1-methyl-6-(1H-pyrazolo[4,3-b]pyridin-3-ylamino)indazol-3-yl]methanone] | 2210
34 | Cn1nc(OCC2CC2)c2ccc(Nc3n[nH]c4cccnc34)cc21 [Example 185, N-(3-(cyclopropylmethoxy)-1-methyl-1H-indazol-6-yl)-1H-pyrazolo[4,3-b]pyridin-3-amine] | 164
35 | Cc1nn(C(C)C)c2cc(Nc3n[nH]c4ccccc34)ccc12 [Example 19, N-(1-isopropyl-3-methyl-1H-indazol-6-yl)-1H-indazol-3-amine] | > 10000
36 | Cc1n[nH]c2ccc(Nc3n[nH]c4cccnc34)cc12 [Example 79] | 813
37 | Cc1cc(Cn2ncc3ncc(Nc4n[nH]c5ccccc45)cc32)no1 [Example 26, N-(1H-indazol-3-yl)-1-((5-methylisoxazol-3-yl)methyl)-1H-pyrazolo[4,3-b]pyridin-6-amine] | > 10000

From patent US10526323B2, “Indazole and azaindazole substituted compounds as mGluR4 allosteric potentiators, compositions, and methods of treating neurological dysfunction” (Vanderbilt University, priority 2015, dated 2020)
